Laboratory results taken from paper PMC5218480 (PLoS ONE, 2017).

System: MV-4-11 cells
Assay: Gene expression microarray analysis (Affymetrix PrimeView) and GSEA
Format: cell-based, human
Parameters: RFU PODN (11730768_x_at) / Fold change /veh PODN (11730768_x_at) / RFU LINC00158 (11744669_a_at) / Fold change /veh LINC00158 (11744669_a_at) / RFU DUSP10 (11751237_a_at) / Fold change /veh DUSP10 (11751237_a_at) / RFU ID3 (11757404_x_at) / Fold change /veh ID3 (11757404_x_at) / RFU PLEKHG5 (11737974_s_at) / Fold change /veh PLEKHG5 (11737974_s_at) / RFU LRRC4B (11730491_at) / Fold change /veh LRRC4B (11730491_at) / RFU GIMAP4 (11747438_a_at) / Fold change /veh GIMAP4 (11747438_a_at) / RFU KRT8 (11758183_x_at) / Fold change /veh KRT8 (11758183_x_at) / RFU CNN1 (11734310_a_at) / Fold change /veh CNN1 (11734310_a_at) / RFU VPS37D (11726825_at) / Fold change /veh VPS37D (11726825_at) / RFU C10orf10 (11716522_x_at) / Fold change /veh C10orf10 (11716522_x_at) / RFU KIR2DL2 /// KIR2DL4 /// KIR2DL5A /// KIR2DL5B /// KIR2DS1 /// KIR2DS2 /// KIR2DS3 /// KIR2DS4 /// KIR3DL3 /// KIR3DL3 /// KIR3DS1 (11738374_at) / Fold change /veh KIR2DL2 /// KIR2DL4 /// KIR2DL5A /// KIR2DL5B /// KIR2DS1 /// KIR2DS2 /// KIR2DS3 /// KIR2DS4 /// KIR3DL3 /// KIR3DL3 /// KIR3DS1 (11738374_at) / RFU C1QL1 (11718748_at) / Fold change /veh C1QL1 (11718748_at) / RFU TMPRSS4 (11747572_a_at) / Fold change /veh TMPRSS4 (11747572_a_at) / RFU HAMP (11756126_x_at) / Fold change /veh HAMP (11756126_x_at) / RFU RNFT2 (11725882_a_at) / Fold change /veh RNFT2 (11725882_a_at) / RFU NR4A2 (11747474_a_at) / Fold change /veh NR4A2 (11747474_a_at) / RFU ABCC12 (11746883_a_at) / Fold change /veh ABCC12 (11746883_a_at) / RFU TMEM136 (11760407_x_at) / Fold change /veh TMEM136 (11760407_x_at) / RFU CLDN22 /// WWC2 (11732394_at) / Fold change /veh CLDN22 /// WWC2 (11732394_at) / RFU HLA-DPB1 (11760878_x_at) / Fold change /veh HLA-DPB1 (11760878_x_at) / RFU SPINT1 (11716480_a_at) / Fold change /veh SPINT1 (11716480_a_at) / RFU GAP43 (11754022_s_at) / Fold change /veh GAP43 (11754022_s_at) / RFU A4GNT (11735810_at) / Fold change /veh A4GNT (11735810_at) / RFU PRB3 (11715151_x_at) / Fold change /veh PRB3 (11715151_x_at) / RFU TUBB4B (11761932_at) / Fold change /veh TUBB4B (11761932_at) / RFU CAPN14 (11732068_a_at) / Fold change /veh CAPN14 (11732068_a_at) / RFU TMCC2 (11721928_a_at) / Fold change /veh TMCC2 (11721928_a_at) / RFU IRGQ (11745062_a_at) / Fold change /veh IRGQ (11745062_a_at) / RFU FAM174B (11720279_a_at) / Fold change /veh FAM174B (11720279_a_at) / RFU TMPRSS4 (11748680_a_at) / Fold change /veh TMPRSS4 (11748680_a_at) / RFU FAM212B (11763350_a_at) / Fold change /veh FAM212B (11763350_a_at) / RFU PLEKHG5 (11743358_a_at) / Fold change /veh PLEKHG5 (11743358_a_at) / RFU ZSCAN30 (11745921_a_at) / Fold change /veh ZSCAN30 (11745921_a_at) / RFU CMKLR1 (11741424_a_at) / Fold change /veh CMKLR1 (11741424_a_at) / RFU LOC101060620 /// MAPK8IP1 (11723275_at) / Fold change /veh LOC101060620 /// MAPK8IP1 (11723275_at) / RFU SPTSSB (11747773_x_at) / Fold change /veh SPTSSB (11747773_x_at) / RFU PRSS12 (11739890_at) / Fold change /veh PRSS12 (11739890_at) / RFU BIN1 (11741810_x_at) / Fold change /veh BIN1 (11741810_x_at) / RFU WNT11 (11732464_a_at) / Fold change /veh WNT11 (11732464_a_at) / RFU C10orf10 (11716521_a_at) / Fold change /veh C10orf10 (11716521_a_at) / RFU C5orf56 (11738089_at) / Fold change /veh C5orf56 (11738089_at) / RFU CYB561 (11721691_x_at) / Fold change /veh CYB561 (11721691_x_at) / RFU ANKRD19P (11752326_a_at) / Fold change /veh ANKRD19P (11752326_a_at) / RFU OR2T12 /// OR2T33 /// OR2T8 (11738714_s_at) / Fold change /veh OR2T12 /// OR2T33 /// OR2T8 (11738714_s_at) / RFU VCAN (11748164_a_at) / Fold change /veh VCAN (11748164_a_at) / RFU JSRP1 (11732532_at) / Fold change /veh JSRP1 (11732532_at) / RFU KRTAP10-11 (11738290_x_at) / Fold change /veh KRTAP10-11 (11738290_x_at) / RFU MYO3A (11730013_a_at) / Fold change /veh MYO3A (11730013_a_at) / RFU EBF3 (11725865_a_at) / Fold change /veh EBF3 (11725865_a_at) / RFU CAMK2N1 (11719241_x_at) / Fold change /veh CAMK2N1 (11719241_x_at) / RFU C5orf56 (11738088_a_at) / Fold change /veh C5orf56 (11738088_a_at) / RFU OLFML3 (11715873_a_at) / Fold change /veh OLFML3 (11715873_a_at) / RFU LOC100653217 /// NTM (11731650_a_at) / Fold change /veh LOC100653217 /// NTM (11731650_a_at) / RFU MAPK11 (11762145_a_at) / Fold change /veh MAPK11 (11762145_a_at) / RFU FIZ1 (11724087_x_at) / Fold change /veh FIZ1 (11724087_x_at) / RFU OASL (11726364_x_at) / Fold change /veh OASL (11726364_x_at) / RFU SOX15 (11748057_x_at) / Fold change /veh SOX15 (11748057_x_at) / RFU CD79A (11719716_a_at) / Fold change /veh CD79A (11719716_a_at) / RFU HIST1H1D (11736915_at) / Fold change /veh HIST1H1D (11736915_at) / RFU CASKIN2 (11723855_a_at) / Fold change /veh CASKIN2 (11723855_a_at) / RFU LOC730098 (11760151_x_at) / Fold change /veh LOC730098 (11760151_x_at) / RFU OR4N2 (11742367_at) / Fold change /veh OR4N2 (11742367_at) / RFU PRRT2 (11749266_a_at) / Fold change /veh PRRT2 (11749266_a_at) / RFU SNX32 (11753110_a_at) / Fold change /veh SNX32 (11753110_a_at) / RFU CDHR5 (11726645_a_at) / Fold change /veh CDHR5 (11726645_a_at) / RFU RCAN1 (11760418_a_at) / Fold change /veh RCAN1 (11760418_a_at) / RFU FAM167A (11723789_a_at) / Fold change /veh FAM167A (11723789_a_at) / RFU FAM26E (11764081_at) / Fold change /veh FAM26E (11764081_at) / RFU ISYNA1 (11749810_s_at) / Fold change /veh ISYNA1 (11749810_s_at) / RFU ACY1 (11761880_at) / Fold change /veh ACY1 (11761880_at) / RFU 11764098_at / Fold change /veh 11764098_at / RFU SAMD14 (11745864_x_at) / Fold change /veh SAMD14 (11745864_x_at) / RFU NPB (11741838_a_at) / Fold change /veh NPB (11741838_a_at) / RFU TMPRSS6 (11731388_a_at) / Fold change /veh TMPRSS6 (11731388_a_at) / RFU KRTAP10-2 (11738614_at) / Fold change /veh KRTAP10-2 (11738614_at) / RFU ARHGAP8 /// PRR5-ARHGAP8 (11727945_x_at) / Fold change /veh ARHGAP8 /// PRR5-ARHGAP8 (11727945_x_at) / RFU KRTAP5-7 /// NADSYN1 (11734609_at) / Fold change /veh KRTAP5-7 /// NADSYN1 (11734609_at) / RFU RASL12 (11751679_a_at) / Fold change /veh RASL12 (11751679_a_at) / RFU CDKN2B (11736163_a_at) / Fold change /veh CDKN2B (11736163_a_at) / RFU PRF1 (11729649_at) / Fold change /veh PRF1 (11729649_at) / RFU, ZNF638 /// ZNF638-IT1 / Fold change vs veh, ZNF638 /// ZNF638-IT1 / RFU, PANK3 / Fold change vs veh, PANK3 / RFU, SH3YL1 / Fold change vs veh, SH3YL1 / RFU, ZEB2 / Fold change vs veh, ZEB2 / RFU, NRIP1 / Fold change vs veh, NRIP1 / RFU, PTTG1IP / Fold change vs veh, PTTG1IP / RFU, CAPN2 / Fold change vs veh, CAPN2 / RFU, MED14 / Fold change vs veh, MED14 / RFU, SNORA58 / Fold change vs veh, SNORA58 / RFU, C1orf63 / Fold change vs veh, C1orf63 / RFU, LRRFIP1 / Fold change vs veh, LRRFIP1 / RFU, NDUFAF7 / Fold change vs veh, NDUFAF7 / RFU, SLC12A2 / Fold change vs veh, SLC12A2 / RFU, IBTK / Fold change vs veh, IBTK / RFU, ESF1 / Fold change vs veh, ESF1 / Fold change vs veh, TMEM50B / RFU, TAOK1 / Fold change vs veh, TAOK1 / RFU, ACBD3 / Fold change vs veh, ACBD3 / RFU, TMA16 / Fold change vs veh, TMA16 / RFU, RWDD3 / Fold change vs veh, RWDD3 / RFU, BCAT1 / Fold change vs veh, BCAT1 / RFU, EDEM3 / Fold change vs veh, EDEM3 / RFU, TMEM33 / Fold change vs veh, TMEM33 / RFU, WDR75 / Fold change vs veh, WDR75 / RFU, AHCTF1 / Fold change vs veh, AHCTF1 / RFU, TFRC / Fold change vs veh, TFRC / RFU, ZDHHC17 / Fold change vs veh, ZDHHC17 / RFU, NOM1 / Fold change vs veh, NOM1 / RFU, ARL8B / Fold change vs veh, ARL8B / RFU, ZBTB11 / Fold change vs veh, ZBTB11 / RFU, TAMM41 / Fold change vs veh, TAMM41 / RFU, KIAA1704 /// LOC100996395 / Fold change vs veh, KIAA1704 /// LOC100996395 / RFU, ING1 / Fold change vs veh, ING1 / RFU, TRMT61B / Fold change vs veh, TRMT61B / RFU, FUBP3 / Fold change vs veh, FUBP3 / RFU, TP53 / Fold change vs veh, TP53 / RFU, TNKS2 / Fold change vs veh, TNKS2 / RFU, ZFP14 / Fold change vs veh, ZFP14 / RFU, ACTR2 / Fold change vs veh, ACTR2 / RFU, PPP3R1 / Fold change vs veh, PPP3R1 / RFU, PIK3R1 / Fold change vs veh, PIK3R1 / RFU, HNRNPA1 / Fold change vs veh, HNRNPA1 / RFU, RNF170 / Fold change vs veh, RNF170 / RFU, ZNF28 / Fold change vs veh, ZNF28 / RFU, RNGTT / Fold change vs veh, RNGTT / RFU, OGT / Fold change vs veh, OGT / RFU, BRD1 / Fold change vs veh, BRD1 / RFU, MARS / Fold change vs veh, MARS / RFU, ZNF655 / Fold change vs veh, ZNF655 / RFU, FAHD1 / Fold change vs veh, FAHD1 / RFU, BDP1 / Fold change vs veh, BDP1 / RFU, LRRCC1 / Fold change vs veh, LRRCC1 / RFU, ARID1A / Fold change vs veh, ARID1A / RFU, ZNF146 / Fold change vs veh, ZNF146 / RFU, ZNF330 / Fold change vs veh, ZNF330 / RFU, GPN3 / Fold change vs veh, GPN3 / RFU, C9orf123 / Fold change vs veh, C9orf123 / RFU, N4BP2L2 / Fold change vs veh, N4BP2L2 / RFU, ARFIP1 / Fold change vs veh, ARFIP1 / RFU, FAM179B / Fold change vs veh, FAM179B / RFU, BCL10 / Fold change vs veh, BCL10 / RFU, UHRF1BP1L / Fold change vs veh, UHRF1BP1L / RFU, BET1 / Fold change vs veh, BET1 / RFU, CNOT2 / Fold change vs veh, CNOT2 / RFU, ZNF268 / Fold change vs veh, ZNF268 / Fold change vs veh, ZNF507 / RFU, DGCR2 / Fold change vs veh, DGCR2 / RFU, WDSUB1 / Fold change vs veh, WDSUB1 / Fold change vs veh, HSP90B1 /// MIR3652 / RFU, ADSS / Fold change vs veh, ADSS / RFU, GK / Fold change vs veh, GK / RFU, ZNF148 / Fold change vs veh, ZNF148 / RFU, TAF9 / Fold change vs veh, TAF9 / RFU, SLC1A5 / Fold change vs veh, SLC1A5 / RFU, SLMO2 / Fold change vs veh, SLMO2 / RFU, ABCC4 / Fold change vs veh, ABCC4 / RFU, LOC101060439 /// RAP1B / Fold change vs veh, LOC101060439 /// RAP1B / RFU, RFX7 / Fold change vs veh, RFX7 / RFU, GTPBP10 / Fold change vs veh, GTPBP10 / RFU, CNEP1R1 / Fold change vs veh, CNEP1R1 / RFU, BIVM-ERCC5 /// ERCC5 / Fold change vs veh, BIVM-ERCC5 /// ERCC5 / RFU, ILF3 / Fold change vs veh, ILF3 / RFU 11762660_at / Fold change /veh 11762660_at / RFU VCAN (11757783_s_at) / Fold change /veh VCAN (11757783_s_at) / RFU DDX43 (11728927_at) / Fold change /veh DDX43 (11728927_at) / RFU KRT8 (11758188_x_at) / Fold change /veh KRT8 (11758188_x_at) / RFU NKD1 (11759106_at) / Fold change /veh NKD1 (11759106_at) / RFU SRD5A1 (11742802_a_at) / Fold change /veh SRD5A1 (11742802_a_at) / RFU TPSAB1 /// TPSB2 (11721975_s_at) / Fold change /veh TPSAB1 /// TPSB2 (11721975_s_at) / RFU GSTM3 (11746129_a_at) / Fold change /veh GSTM3 (11746129_a_at) / RFU IL23R (11737362_x_at) / Fold change /veh IL23R (11737362_x_at) / RFU TMEM51 (11727254_a_at) / Fold change /veh TMEM51 (11727254_a_at) / RFU PIWIL2 (11732686_x_at) / Fold change /veh PIWIL2 (11732686_x_at) / RFU ORM1 (11744905_x_at) / Fold change /veh ORM1 (11744905_x_at) / RFU CCDC152 (11743942_at) / Fold change /veh CCDC152 (11743942_at) / RFU ECM1 (11717891_a_at) / Fold change /veh ECM1 (11717891_a_at) / RFU IL23R (11748794_a_at) / Fold change /veh IL23R (11748794_a_at) / RFU TNFAIP8L3 (11732012_x_at) / Fold change /veh TNFAIP8L3 (11732012_x_at) / RFU MBOAT4 (11741988_at) / Fold change /veh MBOAT4 (11741988_at) / RFU 11764193_at / Fold change /veh 11764193_at / RFU TMEM53 (11763286_at) / Fold change /veh TMEM53 (11763286_at) / RFU MAGEB2 (11727129_at) / Fold change /veh MAGEB2 (11727129_at) / RFU TMEM200A (11744735_a_at) / Fold change /veh TMEM200A (11744735_a_at) / RFU CCDC152 (11751479_a_at) / Fold change /veh CCDC152 (11751479_a_at) / RFU FAM211A (11726209_a_at) / Fold change /veh FAM211A (11726209_a_at) / RFU RGS16 (11746705_a_at) / Fold change /veh RGS16 (11746705_a_at) / RFU VCAN (11755009_s_at) / Fold change /veh VCAN (11755009_s_at) / RFU RHOB (11743442_s_at) / Fold change /veh RHOB (11743442_s_at) / RFU RGS16 (11720943_a_at) / Fold change /veh RGS16 (11720943_a_at) / RFU RGS16 (11720944_at) / Fold change /veh RGS16 (11720944_at) / RFU, VPS4B / Fold change vs veh, VPS4B / RFU, CREB1 / Fold change vs veh, CREB1 / RFU, DNAJC13 / Fold change vs veh, DNAJC13 / RFU, GNAQ / Fold change vs veh, GNAQ / RFU, CDK5R1 / Fold change vs veh, CDK5R1 / RFU, ZRANB3 / Fold change vs veh, ZRANB3 / RFU, CUL4A / Fold change vs veh, CUL4A / RFU, CCNY / Fold change vs veh, CCNY / RFU, UFL1 / Fold change vs veh, UFL1 / RFU, COG3 / Fold change vs veh, COG3 / RFU, DIAPH2 / Fold change vs veh, DIAPH2 / RFU, SKA2 / Fold change vs veh, SKA2 / RFU, AFF3 / Fold change vs veh, AFF3 / RFU, LMF1 / Fold change vs veh, LMF1 / RFU, IPO11 / Fold change vs veh, IPO11 / RFU, DFFB / Fold change vs veh, DFFB / RFU, FOXP1 / Fold change vs veh, FOXP1 / RFU, CARD8 / Fold change vs veh, CARD8 / RFU, STRN3 / Fold change vs veh, STRN3 / RFU, ADK / Fold change vs veh, ADK / RFU, RASSF2 / Fold change vs veh, RASSF2 / RFU, WIPF1 / Fold change vs veh, WIPF1 / RFU, LARP1B / Fold change vs veh, LARP1B / RFU, RASA1 / Fold change vs veh, RASA1 / RFU, RB1 / Fold change vs veh, RB1 / RFU, PPFIA1 / Fold change vs veh, PPFIA1 / RFU, MAT2A / Fold change vs veh, MAT2A / RFU, CCT5 / Fold change vs veh, CCT5 / RFU, WDR92 / Fold change vs veh, WDR92 / RFU, CUX1 / Fold change vs veh, CUX1 / RFU, TTC7A / Fold change vs veh, TTC7A / RFU, TMEM135 / Fold change vs veh, TMEM135 / RFU, DEPTOR / Fold change vs veh, DEPTOR / RFU, CPM / Fold change vs veh, CPM / RFU, DNAJB6 / Fold change vs veh, DNAJB6 / RFU, CACNA2D3 / Fold change vs veh, CACNA2D3 / RFU, DTX4 / Fold change vs veh, DTX4 / RFU, TFCP2 / Fold change vs veh, TFCP2 / RFU, GMCL1 /// GMCL1P1 / Fold change vs veh, GMCL1 /// GMCL1P1 / RFU, AEBP2 / Fold change vs veh, AEBP2 / RFU, SNHG1 /// SNORD22 /// SNORD25 /// SNORD26 /// SNORD27 /// SNORD28 /// SNORD29 /// SNORD31 / Fold change vs veh, SNHG1 /// SNORD22 /// SNORD25 /// SNORD26 /// SNORD27 /// SNORD28 /// SNORD29 /// SNORD31 / Fold change (Aza/veh), C12orf56 (ProbeSet 11735607_a_at) / Fold change (ACY-1035/veh), C12orf56 (ProbeSet 11735607_a_at) / Fold change (Aza/veh), FGFR1OP (ProbeSet 11751329_s_at) / Fold change (ACY-1035/veh), FGFR1OP (ProbeSet 11751329_s_at) / Fold change (Aza/veh), VPS36 (ProbeSet 11739960_a_at) / Fold change (ACY-1035/veh), VPS36 (ProbeSet 11739960_a_at) / RFU SYPL1 (11715823_x_at) / Fold change /veh SYPL1 (11715823_x_at) / RFU IGFBP7 (11715501_s_at) / Fold change /veh IGFBP7 (11715501_s_at) / RFU REEP3 (11722064_at) / Fold change /veh REEP3 (11722064_at) / RFU IGLL1 (11728026_x_at) / Fold change /veh IGLL1 (11728026_x_at): dose or concentration left out as unconfirmed
Conditions: ProbeSet 11725901_x_at; LIST B

Nc1ncn([C@@H]2O[C@H](CO)[C@@H](O)[C@H]2O)c(=O)n1 [azacitidine]
Fold change vs veh, RWDD3: 0.96
